Experimental data published in ChEMBL document CHEMBL4325825, “Medicinal chemistry of acridine and its analogues” (Medchemcomm, 2018).
Each block holds one compound with its values, some of them ahead of it. Where a SMILES comes first, the peptide text is derived from it. The star is where a group is joined. X1 = CCN(CC)CCCCC(C)Nc1c2ccccc2nc2c(C(=O)NCCCO/N=C/C(=O)*)cccc12

How the values were obtained:
[1] = test system: Calf thymus DNA; experiment: Binding affinity to calf thymus DNA; format: nucleic-acid assay; conditions: Bos taurus
[2] = test system: DNA; experiment: Binding affinity to DNA (unknown origin); format: nucleic-acid assay
[3] = biological target: Acetylcholinesterase (Homo sapiens, UniProt P22303); experiment: Inhibition of AChE (unknown origin)
Chain of Acetylcholinesterase (Homo sapiens, UniProt P22303) (P22303 whole entry): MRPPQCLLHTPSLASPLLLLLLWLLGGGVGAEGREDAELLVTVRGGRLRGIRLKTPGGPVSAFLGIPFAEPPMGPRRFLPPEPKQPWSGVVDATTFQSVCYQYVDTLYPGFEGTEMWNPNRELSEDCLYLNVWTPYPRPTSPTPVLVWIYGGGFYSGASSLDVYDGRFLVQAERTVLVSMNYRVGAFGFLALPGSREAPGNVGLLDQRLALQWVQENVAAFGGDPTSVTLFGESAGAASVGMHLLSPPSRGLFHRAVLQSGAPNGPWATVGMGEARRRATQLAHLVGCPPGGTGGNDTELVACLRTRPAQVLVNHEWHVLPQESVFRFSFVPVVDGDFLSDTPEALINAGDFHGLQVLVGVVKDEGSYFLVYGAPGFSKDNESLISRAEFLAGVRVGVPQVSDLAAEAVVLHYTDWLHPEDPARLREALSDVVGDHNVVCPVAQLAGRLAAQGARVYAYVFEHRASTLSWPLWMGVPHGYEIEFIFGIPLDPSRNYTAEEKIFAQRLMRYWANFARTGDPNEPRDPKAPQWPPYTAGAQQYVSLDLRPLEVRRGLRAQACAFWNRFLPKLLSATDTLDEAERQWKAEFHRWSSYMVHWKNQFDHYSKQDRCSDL

[4] = biological target: T1, Acetylcholinesterase (Mus musculus, UniProt P21836); experiment: Inhibition of AChE in mouse brain; format: tissue-based
T1 sequence (P21836 whole entry): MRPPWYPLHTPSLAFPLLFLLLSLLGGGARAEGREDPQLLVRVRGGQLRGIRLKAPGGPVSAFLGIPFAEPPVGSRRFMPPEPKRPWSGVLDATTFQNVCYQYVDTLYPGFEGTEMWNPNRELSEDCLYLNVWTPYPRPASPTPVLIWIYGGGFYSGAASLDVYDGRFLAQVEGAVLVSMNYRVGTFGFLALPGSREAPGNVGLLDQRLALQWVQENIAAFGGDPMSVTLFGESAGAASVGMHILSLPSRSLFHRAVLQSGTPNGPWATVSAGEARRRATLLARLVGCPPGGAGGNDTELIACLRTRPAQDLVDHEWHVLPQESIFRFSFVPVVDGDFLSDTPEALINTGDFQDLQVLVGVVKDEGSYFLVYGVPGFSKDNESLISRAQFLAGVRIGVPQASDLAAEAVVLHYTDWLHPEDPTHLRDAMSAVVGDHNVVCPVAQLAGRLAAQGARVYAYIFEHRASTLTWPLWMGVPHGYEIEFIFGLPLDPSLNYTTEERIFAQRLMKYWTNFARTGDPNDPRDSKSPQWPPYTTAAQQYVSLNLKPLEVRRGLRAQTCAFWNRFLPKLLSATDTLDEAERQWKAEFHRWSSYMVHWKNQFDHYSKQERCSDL

[5] = biological target: Cholinesterase (Homo sapiens, UniProt P06276); experiment: Inhibition of BuChE (unknown origin)
Chain of Cholinesterase (P06276 whole entry): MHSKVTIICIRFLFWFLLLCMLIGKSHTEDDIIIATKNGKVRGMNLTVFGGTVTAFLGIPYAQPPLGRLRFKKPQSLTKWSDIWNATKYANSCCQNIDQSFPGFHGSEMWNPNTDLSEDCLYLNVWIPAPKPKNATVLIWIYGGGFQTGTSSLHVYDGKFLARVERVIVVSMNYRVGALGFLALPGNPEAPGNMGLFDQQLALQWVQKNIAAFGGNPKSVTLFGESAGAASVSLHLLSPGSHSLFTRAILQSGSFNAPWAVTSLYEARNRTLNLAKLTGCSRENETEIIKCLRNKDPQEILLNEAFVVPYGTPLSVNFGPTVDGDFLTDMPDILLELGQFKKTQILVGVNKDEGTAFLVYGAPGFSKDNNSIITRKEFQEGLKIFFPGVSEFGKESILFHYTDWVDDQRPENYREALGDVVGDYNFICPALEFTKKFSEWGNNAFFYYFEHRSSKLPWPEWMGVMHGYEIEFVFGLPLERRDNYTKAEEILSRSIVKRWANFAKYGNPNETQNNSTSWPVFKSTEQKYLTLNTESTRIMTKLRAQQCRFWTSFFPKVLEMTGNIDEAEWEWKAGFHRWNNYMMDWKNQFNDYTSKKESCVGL

[6] = biological target: Amyloid-beta precursor protein (Homo sapiens, UniProt P05067); experiment: Inhibition of amyloid beta (1 to 40) (unknown origin) self aggregation
Chain of Amyloid-beta precursor protein (P05067 whole entry): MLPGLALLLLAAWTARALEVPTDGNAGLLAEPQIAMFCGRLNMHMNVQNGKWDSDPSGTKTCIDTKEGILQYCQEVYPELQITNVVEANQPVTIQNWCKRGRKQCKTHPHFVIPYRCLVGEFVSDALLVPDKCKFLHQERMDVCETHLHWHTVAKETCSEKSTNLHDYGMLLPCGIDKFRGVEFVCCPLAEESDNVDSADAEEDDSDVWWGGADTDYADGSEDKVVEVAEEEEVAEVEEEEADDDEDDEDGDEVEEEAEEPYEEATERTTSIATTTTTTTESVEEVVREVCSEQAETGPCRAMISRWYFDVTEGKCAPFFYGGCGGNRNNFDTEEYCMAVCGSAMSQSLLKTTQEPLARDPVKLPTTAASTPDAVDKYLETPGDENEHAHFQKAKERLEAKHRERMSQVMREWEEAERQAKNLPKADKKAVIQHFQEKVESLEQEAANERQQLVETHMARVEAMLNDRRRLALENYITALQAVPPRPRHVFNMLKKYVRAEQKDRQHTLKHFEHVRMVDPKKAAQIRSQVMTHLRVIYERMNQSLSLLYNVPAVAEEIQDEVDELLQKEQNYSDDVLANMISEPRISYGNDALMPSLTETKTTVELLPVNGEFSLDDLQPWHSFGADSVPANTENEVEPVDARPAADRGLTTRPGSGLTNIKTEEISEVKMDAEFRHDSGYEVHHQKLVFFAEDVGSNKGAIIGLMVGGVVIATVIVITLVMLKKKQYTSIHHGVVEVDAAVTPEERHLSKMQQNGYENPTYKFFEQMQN

SMILES: CCOc1ccc2nc3c(I)c(N)ccc3c(NCCCNCCCNCCn3cnc4c(N)ncnc43)c2c1
K [1]: 10000 to 1e+06 M⁻¹

SMILES: COc1ccc2c(NCCCNCCCNCCn3cnc4c(N)nc(N)nc43)c3cc(Cl)ccc3nc2c1
K [1]: 10000 to 1e+06 M⁻¹

SMILES: Cc1cc(C)c(S(=O)(=O)Nc2ccc(C3C4=C(CC(C)(C)CC4=O)N(c4ccc(Br)cc4)C4=C3C(=O)CC(C)(C)C4)cc2)c(C)c1
IC50 [3]: 140 nM

SMILES: Fc1ccc(N2CCN(c3c4ccccc4nc4c(Cl)cccc34)CC2)cc1
IC50 [4]: 330 nM

SMILES: CCOc1ccc2nc3cc(N)ccc3c(NCCCNCCCNCCn3cnc4c(N)ncnc43)c2c1
K [1]: 10000 to 1e+06 M⁻¹

SMILES: COc1cc2nc3cc([N+](=O)[O-])ccc3c(NCCCNCCCNCCn3cnc4c(N)ncnc43)c2cc1OC
K [1]: 10000 to 1e+06 M⁻¹

SMILES: O=C(NCCCCCNc1c2c(nc3ccccc13)CCCC2)c1c2ccccc2nc2ccccc12
IC50 [3]: 0.0076 nM | IC50 [5]: 0.0017 nM

SMILES: O=C(/C=C/c1ccc([N+](=O)[O-])cc1)NCCCCCCNc1c2c(nc3ccccc13)CCCC2
IC50 [3]: 2.7 nM | IC50 [5]: 6.5 nM

SMILES: CCN(CC)CCCCC(C)Nc1c2ccccc2nc2c(C(=O)NCCCO/N=C/C(=O)NCCCC[C@@H]3NC(=O)CNC(=O)[C@@H]4CCCN4C(=O)[C@H](CCCCN)NC(=O)[C@@H]4CCCN4C(=O)[C@H](CCCCN)NC(=O)CNC(=O)[C@@H]4CCCN4C(=O)[C@H](CCCCN)NC(=O)[C@@H]4CCCN4C3=O)cccc12 (stereo partly specified) (cyclo(GKPKPGK(X1)PKP))
IC50 [6]: 2000 nM

Other lines, results leading:

K [1]: 10000 to 1e+06 M⁻¹
SMILES: COc1ccc2nc3cc(Cl)ccc3c(NCCCNCCCNCCn3cnc4c(N)ncnc43)c2c1

K [2]: 1 ×10⁴ /M
SMILES: N#Cc1c(/N=C/c2c3ccccc3nc3ccccc23)sc2c1CCC2

K [2]: 1 ×10⁴ /M
SMILES: CCOC(=O)c1c(/N=C/c2c3ccccc3nc3ccccc23)sc2c1CCC2

K [2]: 1 ×10⁴ /M
SMILES: COc1ccc2nc3cc(Cl)ccc3c(Nc3sc4c(c3C#N)CCC4)c2c1

K [2]: 1 ×10⁴ /M
SMILES: NC(=O)c1c(/N=C/c2c3ccccc3nc3ccccc23)sc2c1CCC2
